Results on 15 compounds are retold here after publication PMC13539321 (Journal of Advanced Research, 2025).

Series [1] has as its target Mushroom TYR (EC 1.14.18.1) (Agaricus bisporus, UniProt C7FF04). The experiment in a line: biochemical. The note with it: IC50 value ± SD.
In series [2] the test system is A375 cells. The experiment in a line: Cytotoxicity assay. Type of series: cell-based. The note with it: 72 h.
A further series addresses mushroom TYR (Agaricus bisporus, UniProt C7FF04). The experiment in a line: biochemical. Format: binding.
Series [3] has as its system B16F10 cells. The experiment in a line: Intracellular melanogenesis inhibition assay, B16F10. The note with it: melanotan II 100 nM, 72 h; for order of inhibitory effectiveness (macroscopic colour): 100 μM; for inhibitory effect on melanin synthesis: various concentrations. Format: cell-based.
Series [4] has as its system B16F10 cells. In words: Cytotoxicity assay. Type of series: cell-based. The note with it: 72 h.
Another series in a line: Plasma stability study. Format: in vitro ADME. The note with it: human.
The test system of a further series is 3D melanin skin model. In words: 3D human skin model assay. The note with it: 100 µM, six doses, UVB 50 mJ/cm^2 for seven days, n = 6. Type of series: cell-based.
Series [5] deals with A375 cells. The experiment in a line: Intracellular melanogenesis inhibition assay, A375. Type of series: cell-based. The settings on record: melanotan II 100 nM, 72 h, all tested concentrations.
A short description of the next series: in vitro. The settings on record: human, microsomes.
The conditions of series [6]: human, microsomes.
Setting [7] is: L-dopa, substrate L-dopa (diphenolase), n = 3, screening of de novo generated compounds (Table 1).
Setting [8] is: L-tyrosine, substrate L-tyrosine (monophenolase), n = 3, screening of de novo generated compounds (Table 1).

Chain of Mushroom TYR (EC 1.14.18.1) (C7FF04 1-392 limits assumed): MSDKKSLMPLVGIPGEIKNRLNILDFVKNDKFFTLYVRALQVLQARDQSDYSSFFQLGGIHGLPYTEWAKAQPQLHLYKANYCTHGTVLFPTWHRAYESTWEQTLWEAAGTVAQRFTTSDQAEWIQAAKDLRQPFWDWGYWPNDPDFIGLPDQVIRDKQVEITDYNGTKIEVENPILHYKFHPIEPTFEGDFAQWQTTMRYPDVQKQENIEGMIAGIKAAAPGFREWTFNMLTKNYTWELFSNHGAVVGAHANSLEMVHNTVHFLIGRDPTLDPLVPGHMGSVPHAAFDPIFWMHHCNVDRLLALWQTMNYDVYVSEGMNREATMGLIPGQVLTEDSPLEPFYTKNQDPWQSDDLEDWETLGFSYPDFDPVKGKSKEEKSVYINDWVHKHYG
Chain of mushroom TYR (C7FF04 1-392 limits assumed): as above

The IC50 is the point on the concentration scale where inhibition reaches its midpoint. Low readings indicate greater potency, high ones weaker potency. In general, Kd refers to the concentration at which binding is half-saturated. A low value points to tighter binding. For `O=C(CCc1cccc(O)c1)N1CCN(Cc2ccc(F)cc2)CC1` [Compound V, 1-(4-(4-fluorobenzyl)piperazin-1-yl)-3-(3-hydroxyphenyl)propan-1-one], the half-maximal inhibitory concentration (IC50) was 41.8 ± 3 µM in [1] (L-dopa), 18.5 ± 2.4 µM in series [1] (setting [7]), 11.9 ± 0.5 µM in series [1] (L-tyrosine) and 9.6 ± 1.1 µM in series [1] (setting [8]). Further, the cytotoxicity entry in the series with A375 cells [2] (100 μM) is reported as “no cytotoxicity”; in the series with A375 cells [2] (200 μM), “weak cytotoxicity”; in the series with B16F10 cells [4] (200 μM), “no cytotoxicity”. The compound also had a Kd on mushroom TYR of 24.2 ± 20.3 µM. For the same compound, the “order of inhibitory effectiveness (macroscopic colour)” value (“order of inhibitory effectiveness” below) in the series with B16F10 cells [3] is on record as “compound V-24 > β-arbutin > kojic acid ≈ compound V”. The “inhibitory effect on melanin synthesis” value with B16F10 cells [3] is on record as “comparable to that of kojic acid”.
The half-life is the time in which the quantity being followed falls by half. Lower therefore signals fast loss. Broadly, the fraction remaining is the share of the starting amount still present when the sample was taken. The low end stands for a greater loss, the high end for greater stability. Regarding `Cc1ccc(CN2CCN(C(=O)/C=C/c3ccc(O)cc3O)CC2)cc1` [Compound V-24, (E)-3-(2,4-dihydroxyphenyl)-1-(4-(4-methylbenzyl)piperazin-1-yl)prop-2-en-1-one], the half-life at 1 µM in the series “Plasma stability study” came to 524 min; in the series “in vitro”, 34.8 min. In addition, in the series “Plasma stability study”, the amount remaining at 2 h, 1 µM stood at 89.1%. In addition, in the series with 3D melanin skin model, the L value was 83.38 ± 0.40. Further, the IC50 in series [1] (L-dopa) was 0.018 ± 0.0007 µM; in [1] (L-tyrosine) it was 0.02 ± 0.001 µM. The cytotoxicity entry was “no cytotoxicity” with A375 cells [2] (100 μM), “weak cytotoxicity” with A375 cells [2] (200 μM) and “no cytotoxicity” in the series on B16F10 cells [4] (100 μM). In addition, the “inhibitory effect on melanin synthesis” value is reported as “most pronounced inhibitory effect” with A375 cells [5] and “akin to that of β-arbutin” in the series with B16F10 cells [3]. In the series “in vitro”, this compound came in with a fraction remaining at 0.75 h, 1 µM of 42%. The Kd on mushroom TYR came to 13.8 ± 4.2 µM. Besides, the Eh in series [6] is reported as 69.00%. For the same compound, the “order of inhibitory effectiveness” value in the series on B16F10 cells [3] is on record as “compound V-24 > β-arbutin > kojic acid ≈ compound V”.
For `O=C(O)c1ccc(CN2CCC(C(=O)c3ccccc3)CC2)cc1` [IX, 4-((4-benzoylpiperidin-1-yl)methyl)benzoic acid], the IC50 in [1] (setting [7]) and in series [1] (setting [8]) was > 800 µM each time.
Consider `O=C(NCc1ccc(F)cc1)c1cc(O)nc2ccccc12` [VI, N-(4-fluorobenzyl)-2-hydroxyquinoline-4-carboxamide], for which the IC50 in [1] (setting [7]) and in [1] (setting [8]) was > 800 µM in each case.
`COc1cccc(/C=C/C(=O)Nc2n[nH]c3ccccc23)c1` [VII, (E)-N-(1H-indazol-3-yl)-3-(3-methoxyphenyl)acrylamide]: the IC50 in series [1] (setting [7]) and in series [1] (setting [8]) was > 800 µM each time.
As for `O=C(NCCc1cccc(O)c1)c1cccc2ncccc12` [VIII, N-(3-hydroxyphenethyl)quinoline-5-carboxamide], the IC50 in [1] (setting [7]) and in series [1] (setting [8]) was > 800 µM throughout.
`Cc1ccccc1CNC(=O)CCc1cccc(O)c1` [X, 3-(3-hydroxyphenyl)-N-(2-methylbenzyl)propanamide]: the results for the IC50 in [1] (setting [7]) and in [1] (setting [8]) were 462 ± 50.4 µM and 60.9 ± 1.9 µM, respectively.
On to `O=C(C=Cc1ccccc1)NCCc1cccc(O)c1` [XI, N-(3-hydroxyphenethyl)cinnamamide], for which the IC50 in series [1] (setting [7]) is > 800 µM; in series [1] (setting [8]), 622 ± 82.8 µM.
In the case of `O=C(/C=C/c1ccccc1)N1CCN(c2cccc(O)c2)CC1` [XII, (E)-1-(4-(3-hydroxyphenyl)piperazin-1-yl)-3-phenylprop-2-en-1-one], the IC50 in series [1] (setting [7]) is 199 ± 22.7 µM; in [1] (setting [8]), 35.9 ± 1.2 µM.
As to `Cc1nc2ccc(C(=O)NCc3ccc(O)cc3)cc2[nH]1` [XIII, N-(4-hydroxybenzyl)-2-methyl-1H-benzo[d]imidazole-6-carboxamide], the IC50 is > 800 µM in series [1] (setting [7]) and 99.7 ± 15.3 µM in series [1] (setting [8]).
As to `Cc1nc2cc(C(=O)N3CCCN(Cc4ccccc4)CC3)ccc2[nH]1` [XIV, (4-benzyl-1,4-diazepan-1-yl)(2-methyl-1H-benzo[d]imidazol-5-yl)methanone], the results for the IC50 in series [1] (setting [7]) and in series [1] (setting [8]) were > 800 µM and 449 ± 36.1 µM, respectively.
On the same counts, the results for `O=C(c1cccc(OCc2ccccc2)c1)N1CCN(c2ccc(O)cc2)CC1` [XV, (3-(benzyloxy)phenyl)(4-(4-hydroxyphenyl)piperazin-1-yl)methanone] are > 800 µM and > 800 µM.
On to `O=C(Oc1ccc(N2CCNCC2)cc1)c1cnc2ccccc2c1` [XVI, 4-(piperazin-1-yl)phenyl quinoline-3-carboxylate], for which the IC50 in series [1] (setting [7]) worked out at 138 ± 5.1 µM; in [1] (setting [8]), 16 ± 1.6 µM.
The like results for `O=C(Oc1ccc(N2CCNCC2)cc1)c1cc(O)nc2ccccc12` [XVII, 4-(piperazin-1-yl)phenyl 2-hydroxyquinoline-4-carboxylate] were, in that order, 303 ± 47.6 µM and 164 ± 19.8 µM.
Take `O=c1cc(CO)occ1O` [kojic acid, reference compound]: the L value in the series on 3D melanin skin model is 70.98 ± 0.68. For the same compound, the cytotoxicity result in the series on A375 cells [2] (200 μM) and in the series with B16F10 cells [4] (200 μM) was “no cytotoxicity” each time. Moreover, the “order of inhibitory effectiveness” value in the series on B16F10 cells [3] is “compound V-24 > β-arbutin > kojic acid ≈ compound V”.
